# Experimental data as given in US20030229145A1, “Pain treatment methods and compositions” (GRUENENTHAL GMBH, priority 2000, published 2003).
# Where a name gives a salt, the structure may show the parent alone. Read-outs that look alike come from different tables or passages of the source.
# How the values were obtained:
# [1] = system: AMPA response of spinal neurons in the dorsal horn; assay: Microiontophoresis on anaesthetized rats (evoked potentials of dorsal horn cells after application of excitatory amino acids); format: in vivo; settings: for ED50: Rattus norvegicus, Neuron, read-out: ED50 of inhibition of the AMPA response; for Inhibition of the AMPA response of spinal neurons (in words): microiontophoretic NMDA, kainate
# Description: (derivation of evoked ascending potentials of individual cells in the dorsal horn of the spinal cord of anaesthetized rats after microiontophoretic application of excitatory amino acids (EAAs))
# Male rats (Sprague Dawley, Janvier) with a body weight of from 280 g to 350 g were used. To induce the anaesthesia, inhalation anaesthetization was carried out with 4.0-5.0% halothane in a mixture of 200 ml/min oxygen (O2) and 400 ml/min dinitrogen monoxide (N2O) in a plexiglas anaesthetization box. During the preparatory phase, the halothane concentration was reduced to 1.0-1.5%. For the rest of the experiment, the inhalation anaesthetization was then replaced by bolus application of 40 mg/kg of chloralose in 3.5% Haemaccel solution (i.v.) and maintained by continuous infusion of 20 mg/kg/2.0 ml/h of chloralose. After the induction anaesthetization (4.0-5.0% halothane, see above), the tracheal tube was fitted through a syringe cylinder (20 ml Omnifix, Luer) shortened to about 20 mm, which was placed over the mouth and nose of the animals, with a 2.5% halothane concentration. The halothane concentration was then reduced to about 1.5%. Exhaled air was extracted through a closed system. For the application of test substances, a PE-20 (1.09*0.38mm) catheter was fitted into the dorsal branch of the left V. jugularis. A PE-50 tube (0.9569 mm*0.58 mm) was inserted into the left arteria carotis as a catheter for continuously monitoring the blood pressure. For the laminectomy, the animals were then placed in the prone position. An incision was made along the midline from the nape of the neck to the pelvic region. A blood-pressure drop frequently observed following this was treated by local application of lidocaine HCl with adrenaline (xylocitin 2% with adrenaline 0.001%, Jenapharm). The superficial tissue layers on both sides of the spinal column were removed in the vicinity of the vertebral bodies from sacral 2 (S2) to thoracic 8 (Th8). The musculature associated with the vertebral bodies was also removed by careful scraping with a scalpel. The actual laminectomy begins at vertebral body L2 (lumbar 2), after removing the processus spinalis from vertebra L3, and extends into the TH8 rostral region as far as where the large dorsal veins branch off laterally and caudally. The bones of the individual vertebral bodies were carefully removed in small stages by means of fine rongeurs. The musculature around TH8/9 and L1/S2 was also removed, so that immobilization clamps could be fitted later. Exposed tissue was protected against drying by applied 0.9% strength NaCI solution or thin PVC strips. […] In addition to the blood pressure, the local blood circulation was visually assessed, a pink skin color of the paws indicating normal microcirculation. […]
# AMPA receptor = assay: Affinity for the AMPA receptor; format: binding
# NMRI mice = assay: Phenylquinone-induced writhing test on mice; format: in vivo; settings: 10 min; mouse, i.v., phenylquinone i.p. 10 minutes after substance
# Description: The anti-nociceptive efficacy of the compounds according to the invention was studied on mice with the phenylquinone-induced writhing test, modified after I. C. Hendershot, J. Forsaith, J. Pharmacol. Exp. Ther. 125, 237-240 (1959). Male NMRI mice with a weight of from 25-30 g were used for this purpose. 10 minutes after intravenous administration of a compound according to the invention, groups of 10 animals per substance dose were intraperitoneally given 0.3 ml/mouse of a 0.02% strength aqueous solution of phenylquinone (phenylbenzoquinone, Sigma, Deisenhofen; production of the solution with the addition of 5% ethanol and storage in a water bath at 45° C.). The animals were placed individually in observation cages. The number of pain-induced stretching movements (so-called writhing reactions =straightening of the body with stretching of the hind extremities) were counted by means of a push-button counter 5-20 minutes after the phenylquinone administration. Animals which received physiological saline solution i.v. and phenylquinone […]. were also included as a control.
# All the substances were tested in the standard dose of 10 mg/kg. The percentage inhibition (% inhibition) of the writhing reactions by a substance was calculated according to the following formula:
# % inhibition=100−[WR of treated animals/ WR of control×100]
# Sprague Dawley rats = assay: Mechanical hyperalgesia after paw incision on rats (paw incision model); format: in vivo
# Description: In this model, the pain due to a wound in the vicinity of an incision on the plantar side of a hind paw of the rat is studied as a model of postoperative pain (Brennan, T. J., Vandermeulen, E. P., Gebhart, G. F., Pain (1996) 493-501). For this purpose, the retraction latency after point mechanical stimulation with an electronic von Frey filament is determined. After the paw incision, a mechanical hyperalgesia develops and remains stable over several days.
# Male Sprague Dawley rats (body weight 200-300 g) are used. […]
# By using an electronic von Frey filament (Digital Transducer Indicator Model 1601C, IITC Inc.), the retraction threshold of the paw, expressed in grams, after point mechanical stimulation is determined. For this purpose, the retraction threshold is measured five times per measurement point at an interval of 30 sec, and the individual median is determined, with the aid of which the average of the animal population is calculated. […]
# To study the primary hyperalgesia, the retraction threshold on the ipsilateral paw is determined in the immediate vicinity of the incision, and also in the same position on the contralateral paw. […]
# The Mann-Whitney U test is used for the significance calculation (p<0.05). For dose-dependent effects, the ED50 value is determined with the aid of a regression analysis.
Structure (SMILES),"ED50 ([1]; anaesthetized rats, spinal neurons in the dorsal horn) [mg/kg]",Inhibition of the AMPA response of spinal neurons (in words) ([1]; anaesthetized rats),Affinity for the AMPA receptor (in words) (AMPA receptor),ED50 (NMRI mice) [mg/kg],"% MPE, retraction threshold of the ipsilateral paw (Sprague Dawley rats; 464 mg/kg i.p.)",ED50 [1] [mg/kg],"% MPE, retraction threshold of the ipsilateral paw (Sprague Dawley rats; 100 mg/kg)"
CCCC(CC)C(N)C(=O)[O-].[Na+] (racemic),60,selective inhibition of the AMPA response,without having any AMPA affinity,,,,
"CCCCCC(C)C(N)C(=O)O (racemic) [Compound 2, rac-2-amino-3-methyl-octanoic acid hydrochloride as a 1:1 D/L mixture]",,,,28,,,
"CCCC(CC)C(N)C(=O)O.Cl (racemic) [Compound 7, rac-amino-3-ethyl-hexanoic acid hydrochloride as a 1:1 D/L mixture]",,,,,30% MPE (464 mg/kg i.p.),,
NCC1(CC(=O)O)CCCCC1 [Gabapentin],,dose-dependent and selective inhibition of the AMPA response,no affinity for the AMPA receptor,38,,106,66% MPE (100 mg/kg)
